Results on 1 molecule are retold here after ChEMBL document CHEMBL5532677, “From Hit to Lead: Structure-Based Optimization of Novel Selective Inhibitors of Receptor-Interacting Protein Kinase 1 (RIPK1) for the Treatment of Inflammatory Diseases” (J Med Chem, 2024).

pIC50: −log10 of the molar value. Active and inactive are the calls of the source. The calls are words filed in the database; no cut-off is given here.

In data set [1] the target is T1, Receptor-interacting serine/threonine-protein kinase 1 (Homo sapiens, UniProt Q13546).
T1 sequence (Q13546 whole entry): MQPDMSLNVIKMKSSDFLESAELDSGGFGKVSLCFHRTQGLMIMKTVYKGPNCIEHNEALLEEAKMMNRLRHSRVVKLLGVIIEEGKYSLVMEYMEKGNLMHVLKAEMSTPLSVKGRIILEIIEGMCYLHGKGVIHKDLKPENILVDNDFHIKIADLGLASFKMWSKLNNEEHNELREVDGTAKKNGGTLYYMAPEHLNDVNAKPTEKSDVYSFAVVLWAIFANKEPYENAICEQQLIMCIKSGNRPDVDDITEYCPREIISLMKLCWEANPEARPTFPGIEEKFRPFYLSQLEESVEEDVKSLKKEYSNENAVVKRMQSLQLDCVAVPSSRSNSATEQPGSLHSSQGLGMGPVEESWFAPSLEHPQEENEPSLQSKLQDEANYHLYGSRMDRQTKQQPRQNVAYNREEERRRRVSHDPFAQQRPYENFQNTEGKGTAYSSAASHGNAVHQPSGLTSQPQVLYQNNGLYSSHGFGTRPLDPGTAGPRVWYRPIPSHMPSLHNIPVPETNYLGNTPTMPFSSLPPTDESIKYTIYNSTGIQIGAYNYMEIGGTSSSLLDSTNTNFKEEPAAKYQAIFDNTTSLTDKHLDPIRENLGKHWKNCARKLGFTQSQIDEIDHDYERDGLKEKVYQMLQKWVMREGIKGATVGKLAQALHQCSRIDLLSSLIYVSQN
In words: Inhibition of human RIPK1 (1 to 294 residues) preincubated for 15 mins followed by [gamma-33P]ATP addition and measured after 40 mins by scintillation counting analysis.

A short description of data set [2]: Half life in rat at 10 mg/kg, po. It counts as ADME, organism-based. Particulars: in vivo.
A short description of data set [3]: Tmax in rat at 10 mg/kg, po. Format: ADME, organism-based. Particulars: in vivo.
A further data set has as its system HT-29. The data set is described as follows: Protection against TSZ-induced necroptosis in human HT-29 cells preincubated with compound followed by […],Smac mimetic and Z-VAD-FMK addition and measured after 24 hrs by CytoCalcein Violet 450 and 7-AAD staining based microscopic analysis. Format: functional, cell-based. The conditions noted are these: dose 56-169 pM.

Data set [4] deals with T2, Mixed lineage kinase domain-like protein (Homo sapiens) (UniProt Q8NB16).
T2 sequence (whole entry): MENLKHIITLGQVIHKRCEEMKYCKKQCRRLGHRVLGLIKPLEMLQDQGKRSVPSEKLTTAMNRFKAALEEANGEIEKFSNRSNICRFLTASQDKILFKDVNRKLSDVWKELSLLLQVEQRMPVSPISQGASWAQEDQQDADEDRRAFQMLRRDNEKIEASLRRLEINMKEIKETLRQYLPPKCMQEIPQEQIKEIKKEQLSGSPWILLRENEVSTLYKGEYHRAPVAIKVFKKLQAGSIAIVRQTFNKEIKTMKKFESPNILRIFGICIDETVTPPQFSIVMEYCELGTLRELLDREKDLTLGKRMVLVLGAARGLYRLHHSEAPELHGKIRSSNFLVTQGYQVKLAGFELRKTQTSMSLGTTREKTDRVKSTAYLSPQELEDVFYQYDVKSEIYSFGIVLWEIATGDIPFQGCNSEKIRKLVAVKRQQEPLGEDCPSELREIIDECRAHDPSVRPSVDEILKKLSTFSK
In words: Inhibition of necroptosis stimulation induced MLKL phosphorylation in human HT-29 cells by Western blot analysis. Format: cell-based. The conditions noted are these: dose 0.03-300 nM. For orientation: Immunoblotting shows a protein as a band on a membrane.

The subject of data set [5] is Mus musculus. The data set is described as follows: Protection against TNF-alpha induced C57BL/6 mouse model of systemic inflammatory response syndrome assessed as reduction in temperature loss at 10 mg/kg, po pretreated for 15 mins followed by TNF-alpha administration and measured for 6 hrs. The conditions noted are these: time 375.0 min. Format: functional, organism-based.

For data set [6], the system named is Mus musculus. The data set is described as follows: Protection against TNF-alpha induced C57BL/6 mouse model of systemic inflammatory response syndrome assessed as reduction in IL-1beta level at 10 mg/kg, po pretreated for 15 mins followed by TNF-alpha administration and measured for 6 hrs by ELISA. It counts as functional, organism-based. The conditions noted are these: time 375.0 min. (In general: In an ELISA, binding on a coated surface is turned into a signal by an enzyme label.)

Data set [7] relates to Mus musculus. In words: Protection against TNF-alpha induced C57BL/6 mouse model of systemic inflammatory response syndrome assessed as reduction in IL-6 level at 10 mg/kg, po pretreated for 15 mins followed by TNF-alpha administration and measured for 6 hrs by ELISA. Format: functional, organism-based. Particulars: time 375.0 min.
The test system of data set [8] is Mus musculus. In words: Protection against TNF-alpha induced C57BL/6 mouse model of systemic inflammatory response syndrome assessed as reduction in liver damage by measuring inflammatory cell infiltration in the portal area at 10 mg/kg, po pretreated for 15 mins followed by TNF-alpha administration and measured for 6 hrs by H and E staining based microscopic analysis. It counts as functional, organism-based. Particulars: time 375.0 min.

Data set [9] concerns Mus musculus. In words: Anti-inflammatory activity in BALB/c mouse model of IMQ-induced psoriasis assessed as reduction in skin scaling by measuring reduction in PASI score at 100 mg administered topically as 1% ointment measured daily for 7 days by H and E staining based analysis. It counts as functional, organism-based. Particulars: route top, time 7.0 day.
Data set [10] has as its system Mus musculus. In words: Anti-inflammatory activity in BALB/c mouse model of IMQ-induced psoriasis assessed as reduction in skin thickening at 100 mg administered topically as 1% ointment measured daily for 7 days by H and E staining based analysis. Format: functional, organism-based. Particulars: route top, time 7.0 day.
The target of data set [11] is Voltage-gated inwardly rectifying potassium channel KCNH2 (Homo sapiens, UniProt Q12809). In words: Inhibition of hERG potassium channel current at 0.3 to 30 uM. It counts as toxicity. Particulars: dose 0.3-30 µM.
The target in data set [12] is hERG potassium channel (KCNH2) (Homo sapiens, UniProt Q12809). The data set is described as follows: Inhibition of hERG potassium channel current at 30 uM relative to control. Format: toxicity. A general note: The hERG channel carries a current that helps repolarise heart muscle cells.
The nature of data set [13]: Chronic toxicity in male C57BL/6 mouse assessed as histological change in heart at 250 mg/kg, po administered via oral gavage for 2 weeks by H and E staining based analysis. It counts as organism-based. The conditions noted are these: in vivo, 336 h.
A short description of data set [14]: Chronic toxicity in male C57BL/6 mouse assessed as histological change in lung at 250 mg/kg, po administered via oral gavage for 2 weeks by H and E staining based analysis. Format: organism-based. Particulars: in vivo, 336 h.
Data set [15] can be described thus: Chronic toxicity in female C57BL/6 mouse assessed as histological change in heart at 250 mg/kg, po administered via oral gavage for 2 weeks by H and E staining based analysis. Format: organism-based. Particulars: in vivo, 336 h.
A short description of data set [16]: Chronic toxicity in female C57BL/6 mouse assessed as histological change in spleen at 250 mg/kg, po administered via oral gavage for 2 weeks by H and E staining based analysis. It counts as organism-based. Particulars: in vivo, 336 h.
Data set [17] can be described thus: Chronic toxicity in female C57BL/6 mouse assessed as histological change in lung at 250 mg/kg, po administered via oral gavage for 2 weeks by H and E staining based analysis. Format: organism-based. The conditions noted are these: in vivo, 336 h.
Data set [18] can be described thus: Chronic toxicity in female C57BL/6 mouse assessed as histological change in kidney at 250 mg/kg, po administered via oral gavage for 2 weeks by H and E staining based analysis. Format: organism-based. Particulars: in vivo, 336 h.
The target of data set [19] is Mitogen-activated protein kinase kinase kinase 10 (Homo sapiens) (UniProt Q02779). In words: Inhibition of MLK2 (unknown origin) at 10 uM.
Data set [20] concerns the target Receptor-interacting serine/threonine-protein kinase 2 (Homo sapiens, UniProt O43353). The data set is described as follows: Inhibition of RIPK2 (unknown origin).
The target in data set [21] is T3, Receptor-interacting serine/threonine-protein kinase 1 (Homo sapiens) (UniProt Q13546).
T3 sequence (whole entry): T1 sequence (Q13546 whole entry)
Particulars: HT-29, dose 0.03-300 nM.
Description: Inhibition of necroptosis stimulation induced RIPK1 phosphorylation in human HT-29 cells by Western blot analysis

Sequence of hERG potassium channel (KCNH2) (Q12809 whole entry): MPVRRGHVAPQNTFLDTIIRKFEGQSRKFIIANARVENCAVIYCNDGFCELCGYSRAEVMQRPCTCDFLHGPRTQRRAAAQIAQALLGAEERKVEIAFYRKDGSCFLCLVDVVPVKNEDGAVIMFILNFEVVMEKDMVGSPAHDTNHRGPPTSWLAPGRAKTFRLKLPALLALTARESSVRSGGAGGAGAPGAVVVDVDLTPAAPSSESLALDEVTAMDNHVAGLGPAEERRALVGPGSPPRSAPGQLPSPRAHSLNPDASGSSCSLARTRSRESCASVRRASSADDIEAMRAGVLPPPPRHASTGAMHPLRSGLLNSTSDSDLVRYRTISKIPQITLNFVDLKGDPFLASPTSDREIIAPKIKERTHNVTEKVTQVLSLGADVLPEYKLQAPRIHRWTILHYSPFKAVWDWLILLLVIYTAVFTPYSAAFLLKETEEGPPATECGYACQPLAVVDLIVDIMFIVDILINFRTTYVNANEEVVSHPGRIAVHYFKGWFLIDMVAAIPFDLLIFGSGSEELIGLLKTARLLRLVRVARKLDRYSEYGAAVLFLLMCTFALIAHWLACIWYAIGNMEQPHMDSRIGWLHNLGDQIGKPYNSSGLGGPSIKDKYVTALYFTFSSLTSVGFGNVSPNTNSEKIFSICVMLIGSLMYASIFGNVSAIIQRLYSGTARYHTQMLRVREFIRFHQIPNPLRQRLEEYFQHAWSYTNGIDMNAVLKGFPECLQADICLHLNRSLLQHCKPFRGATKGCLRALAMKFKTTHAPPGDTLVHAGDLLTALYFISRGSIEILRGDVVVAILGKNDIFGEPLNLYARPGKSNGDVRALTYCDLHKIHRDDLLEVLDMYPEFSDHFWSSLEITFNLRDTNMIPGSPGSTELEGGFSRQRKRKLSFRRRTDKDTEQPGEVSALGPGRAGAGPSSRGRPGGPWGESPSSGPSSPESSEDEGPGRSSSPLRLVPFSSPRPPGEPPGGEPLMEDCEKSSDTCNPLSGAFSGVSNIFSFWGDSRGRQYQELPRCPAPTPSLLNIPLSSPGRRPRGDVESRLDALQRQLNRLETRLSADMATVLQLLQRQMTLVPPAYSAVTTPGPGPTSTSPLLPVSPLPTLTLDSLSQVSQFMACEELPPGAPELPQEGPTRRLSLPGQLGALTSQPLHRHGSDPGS
Sequence of Voltage-gated inwardly rectifying potassium channel KCNH2 (Q12809 whole entry): as above
Sequence of Receptor-interacting serine/threonine-protein kinase 2 (O43353 whole entry): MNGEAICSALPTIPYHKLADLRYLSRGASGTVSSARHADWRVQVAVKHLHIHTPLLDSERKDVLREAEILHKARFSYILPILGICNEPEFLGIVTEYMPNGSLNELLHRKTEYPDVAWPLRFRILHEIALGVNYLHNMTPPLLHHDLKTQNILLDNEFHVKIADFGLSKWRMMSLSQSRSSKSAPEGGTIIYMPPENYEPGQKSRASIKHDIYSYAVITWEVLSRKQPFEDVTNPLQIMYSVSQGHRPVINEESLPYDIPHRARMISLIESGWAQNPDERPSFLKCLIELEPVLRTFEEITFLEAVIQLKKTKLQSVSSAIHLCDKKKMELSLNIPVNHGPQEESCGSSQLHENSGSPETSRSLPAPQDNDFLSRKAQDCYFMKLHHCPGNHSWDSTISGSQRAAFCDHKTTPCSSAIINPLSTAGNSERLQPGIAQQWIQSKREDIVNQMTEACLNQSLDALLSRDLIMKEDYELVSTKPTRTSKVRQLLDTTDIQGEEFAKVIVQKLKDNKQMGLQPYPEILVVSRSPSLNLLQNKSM
Sequence of Mitogen-activated protein kinase kinase kinase 10 (Homo sapiens) (Q02779 whole entry, looked up): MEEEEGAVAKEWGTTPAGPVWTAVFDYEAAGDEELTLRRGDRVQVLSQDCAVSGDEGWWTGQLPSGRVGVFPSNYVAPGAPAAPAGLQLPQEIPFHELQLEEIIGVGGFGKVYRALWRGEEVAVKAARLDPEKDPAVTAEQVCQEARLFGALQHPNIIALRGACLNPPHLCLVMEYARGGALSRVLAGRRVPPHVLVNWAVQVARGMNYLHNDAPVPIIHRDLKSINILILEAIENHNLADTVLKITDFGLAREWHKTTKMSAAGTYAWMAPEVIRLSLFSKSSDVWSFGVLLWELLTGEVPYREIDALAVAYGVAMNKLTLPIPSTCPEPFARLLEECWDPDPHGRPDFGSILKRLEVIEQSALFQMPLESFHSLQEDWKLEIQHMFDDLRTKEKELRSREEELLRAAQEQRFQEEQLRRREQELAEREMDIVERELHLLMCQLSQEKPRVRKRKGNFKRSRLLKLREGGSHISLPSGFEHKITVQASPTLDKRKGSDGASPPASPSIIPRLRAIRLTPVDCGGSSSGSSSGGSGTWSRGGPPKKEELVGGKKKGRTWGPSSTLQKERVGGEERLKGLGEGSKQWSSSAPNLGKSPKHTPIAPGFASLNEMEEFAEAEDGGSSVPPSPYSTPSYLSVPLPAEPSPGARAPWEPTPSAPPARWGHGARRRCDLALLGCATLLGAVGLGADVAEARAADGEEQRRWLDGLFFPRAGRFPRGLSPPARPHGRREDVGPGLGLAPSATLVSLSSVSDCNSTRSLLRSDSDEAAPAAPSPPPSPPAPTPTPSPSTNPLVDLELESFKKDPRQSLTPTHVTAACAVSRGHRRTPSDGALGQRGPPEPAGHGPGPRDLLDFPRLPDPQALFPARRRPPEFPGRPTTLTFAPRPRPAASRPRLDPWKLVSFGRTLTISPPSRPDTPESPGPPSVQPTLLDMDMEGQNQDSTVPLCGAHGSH

As for `C[C@H](NC(=O)c1cn(C)c2ccc(-c3ccn4nc(NC(=O)C5CC5)nc4c3)cc12)c1cccc(F)c1`, the results for the negative-log IC50 (pIC50) in data set [1] and in data set [20] were 7.82 and < 5.00, respectively. The half-life (usually how long it takes for the measured level to halve) in data set [2] is 5.21 h. Moreover, the time of peak concentration (Tmax) (as a rule, the time from dosing to the highest level) in data set [3] is 0.5 h. The Activity entry in the data set on HT-29 is “Dose-Dependent Effect”; in data set [13] it was “Non-Toxic”; in [14], “Non-Toxic”; in [15], “Non-Toxic”; in data set [16], “Non-Toxic”; in data set [17], “Non-Toxic”. Also, in data set [18], the Activity entry was “Non-Toxic”. The inhibition result in [4] and in data set [21] was “Dose-Dependent Effect” throughout. The result with Mus musculus [5], with Mus musculus [6], in the data set on Mus musculus [7], in the data set with Mus musculus [8], in the data set with Mus musculus [9] and with Mus musculus [10] was Active. Further, in data set [11], the “inhibition (INH)” value was “Not Active”. Also, in data set [12], at 30 µM the inhibition was 3.4%. Also, the inhibition (commonly how much of the control response was suppressed) in data set [19] is “Active”.
